Laboratory results taken from the NIST ThermoML archive (doi:10.1021/acs.jced.6b00781).
± gives the expanded uncertainty stated by the source.

Conditions: Crystal

Normal melting temperature (DTA) [°C] | Normal melting temperature (visual observation) [°C] | Compound
123.83 ± 2 |  | Oc1ccc2ccccc2c1 [2-hydroxynaphthalene]
 | 97.39 ± 2 | Oc1cccc2ccccc12 [1-naphthol]
